Experimental data published in patent US20240382455A1, “COMPOSITION CONTAINING 1H-PYRAZOLE-3-AMIDE-BASED COMPOUND DERIVATIVE FOR PREVENTION OR TREATMENT OF FIBROSIS” (TSD LIFE SCIENCES CO., LTD., priority 2017, published 2024).

Columns and labels:
Type in all cases: in vivo, C57BL/6 mice
[1] = test system: collagen permeated into epididymal adipose tissue of fibrosis model mice; assay: Picrosirius staining of epididymal adipose tissue of fibrosis model mice; conditions: adipose tissue (FIG. 2); high fat and high-carbohydrate diet mice; 10 mg/kg intraperitoneal for 4 weeks; compared to vehicle treatment group
Protocol: (§1) First, after stabilizing 5-week old male C57BL/6 mice for one week, a fibrosis model was constructed by feeding the mice with a high fat diet and a high-carbohydrate diet for 12 weeks, thereby inducing fibrosis of the mice. After that, the mice were divided into total four groups, and a vehicle (negative control group), 10mg/kg of rimonabant (positive control group), 10 mg/kg of a compound 1, and 10mg/kg of a compound 2 were administered to each of the groups by intraperitoneal injection for 4 weeks. In order to perform an experimental process, the mice were sacrificed, and epididymal adipose and liver tissues were extracted from the sacrificed mice.
(§2) After fixing and embedding the extracted epididymal adipose and liver tissues, paraffin sections were manufactured by slicing the embedded epididymal adipose and liver tissues. After that, fibrosis degrees were analyzed by staining collagen permeated into each of the tissues by using a picrosirius red stain kit.

[2] = test system: collagen permeated into liver tissue of fibrosis model mice; assay: Picrosirius staining of liver tissue of fibrosis model mice; conditions: liver tissue (FIG. 4); high fat and high-carbohydrate diet mice; 10 mg/kg intraperitoneal for 4 weeks; compared to vehicle treatment group
Protocol: as §1, §2

[3] = test system: αSMA, TGF-β1, COL6A3, and LOX mRNAs; assay: Quantitative real-time PCR on epididymal adipose tissue of fibrosis model mice; conditions: adipose tissue (FIG. 3); 10 mg/kg intraperitoneal for 4 weeks; almost similar to rimonabant 10 mg/kg positive control
Protocol: as §1
(§3) After separating RNA from the extracted epididymal adipose and liver tissues by using a Trizol reagent (Gibco), cDNA templates were produced by using reverse transcriptase. After injecting such produced cDNA templates into SYBR green dyes by using gene-specific nucleotide primers, PCR products were analyzed to obtain analyzed mRNAs by amplifying the cDNA templates injected into SYBR green dyes with a real-time multiplexing amplification system (CFX connect™, Bio-Rad). At this time, the analyzed mRNAs were αSMA, TGF-β1, COL6A3, and LOX mRNAs, and used primer sequences are as described in the following [Table 1].

[4] = test system: αSMA, TGF-β1, COL6A3, and LOX mRNAs; assay: Quantitative real-time PCR on liver tissue of fibrosis model mice; conditions: liver tissue (FIG. 5); 10 mg/kg intraperitoneal for 4 weeks; almost similar to rimonabant 10 mg/kg positive control
Protocol: as §1, §3

Compound: Cc1c(C(=O)C(=O)NCCO)nn(-c2ccc(Cl)cc2Cl)c1-c1ccc(Cl)cc1 [compound 2, 2-(5-(4-chlorophenyl)-1-(2,4-dichlorophenyl)-4-methyl-1H-pyrazole-3-yl)-N-(2-hydroxyethyl)-2-oxo-acetamide]
- accumulation degrees stained with red color (picrosirius, collagen) [1]: reduced
- accumulation degrees stained with red color (picrosirius, collagen) [2]: reduced
- expression of four gene mRNAs (αSMA, TGF-β1, COL6A3, LOX) [3]: inhibited
- expression of four gene mRNAs (αSMA, TGF-β1, COL6A3, LOX) [4]: inhibited

Compound: Cc1c(/C=C/C(=O)NCc2cccc(Cl)c2)nn(-c2ccc(Cl)cc2Cl)c1-c1ccc(Cl)cc1 [compound 1, (E)-N-(3-chlorobenzyl)-3-(5-(4-chlorophenyl)-1-(2,4-dichlorophenyl)-4-methyl-1H-pyrazole-3-yl)acrylamide]
- accumulation degrees stained with red color (picrosirius, collagen) [1]: reduced
- accumulation degrees stained with red color (picrosirius, collagen) [2]: reduced
- expression of four gene mRNAs (αSMA, TGF-β1, COL6A3, LOX) [3]: inhibited
- expression of four gene mRNAs (αSMA, TGF-β1, COL6A3, LOX) [4]: inhibited
